Structures can show the parent of a compound that is named as a salt.
Tests used:
[1] = Acute toxicity (LD50) in rats, oral; settings: rat, in vivo, 14th day of observation, read-out: DL50
Experimental: The compounds of the invention are therapeutically useful substances, practically free of acute, subacute or chronic toxic effects. LD50 values, usually exceeding 1 g/kg body weight are measured in mice and in rats after oral and intraperitoneal (i.p.) administration of the compounds of the invention. Only N-diethylaminoethylamino, N'-[(R,S)-2-(2-methoxyphenoxymethyl)-1,3-thiazolidine]-malondiamide and N-β-pyridylmethylamino-N'-[(R,S)-2-(2-methoxy-phenoxy-methyl)-1,3-thiazolidine]-malondiamide show DL50 values of 0.25 and 0.85 g/Kg respectively after oral administration to rats at the 14th day of observation.

[2] = test system: airways hyperreactivity, pulmonary inflation pressure (PIP); experiment: Airway hyperreactivity (PIP increase after autacoid challenge) after tobacco smoke exposure; format: in vivo, guinea pig (male); settings: for prevention/inhibition of airway hyperreactivity (words): compounds: oral 20-60, i.v. 0.25-5, s.c. 2-15 mg/Kg, 6 MPHE 10-50 mg/Kg i.m., DSCG 20-100 mg/Kg i.m., salbutamol 0.5 mg/Kg i.v.
Experimental: In order to show this surprising pharmacological property, the compounds of the invention were tested in a bronchial hyperreactivity animal model recently developed (see Omini C. et al., 23rd Ann. Med: S.E.P.C.R., Athens 20-24th June 1988, Abstract 15S Eur. J. Resp. Dis. in press).
The airways hyperreactivity is measured as abnormal increase of the pulmonary inflation pressure (PIP) caused by the exacerbate bronchconstrictive response that follows to an autocoid challenge after active forced tobacco smoke exposure for a 10 minutes period. The abnormal PIP increase is compared with the PIP increase observed, in the same animal, before tobacco smoke, and after autacoids challenge. Male guinea pigs (400-450 g b.w.) anaesthetized with ethylurethane and pancuronium bromide were used; the recording of PIP is performed in accordance with Konzett and Rossler methods (Naumm. Schiedeberg Arch. Exp. Path/Pharmacol. 195, 71, 1940). To evidentiate such bronchial smooth muscle hyperreactivity suitable autocoids are acetylcholine, histamine, serotonine, bradykinins.
Male guinea pigs (400-450 g) are anaesthetized with ethylurethane (i.p.) and pancuronium bromide (i.v.): the trachea is cannulated and the lungs are ventilated at constant volume by connection with "Rodent respirator" Basile apparatus mod. 7025. The pulmonary inflation pressure (PIP) is measured by connection to a side-warm of the tracheal cannula of a Bell and Howell pressure transducer (mod. P 17570) that is connected to a Beckmann (mod. R 611) dynograph. The right jugular vein is catheterized for i.v. injection of autacoids and drugs. The pharmacological experiment starts with the treatment of the animal with the autocoids (for example acetylcholine by i.v. route in the interval 2.5-10 mcg/kg) in order to induce a reversible bronchoconstruction response, measured by an increase of the pulmonary inflation pressure (PIP). This increase is recorded and it is considered to represent the basal value of the animal bronochoconstrictor response to the challenge with the autocoid.
The animal is then actively exposed for a 10 minutes time period to the tobacco smoke of alighted cigarette (directly inspired by the animal). Afterwards the animal is challenged again with the autocoid, using the dosage previously injected for evokating the basal bronchoconstrictor response. The novel challenge induces an exacerbate bronochoconstrictory response and the airway hyper-reactivity is measured as the differential increase in the PIP after tobacco smoke exposure in respect to the basal value. The challenge may be repeated in the time, (2-3 hours after smoke exposure, too) until reproducible hyper-reactive responses are obtained or at different time from tobacco exposure.
(§1) A substance may be administered by i.v., oral, subcutaneous or intramuscular route at different times before tobacco smoke exposure. A compound is considered effective when it is able to prevent almost completely the exacerbate differential increase in the PIP and normalize the BAL cell cytologic pattern at the same dose level.
Differential increases of the pulmonary inflation pressure over the basal value after autacoid challenges, ranging from 150-200% are observed after smoke exposure in the animal control group (i.e. in the absence of any pharmacological treatment).
Drug treatment may be performed using different routes: intravenous, oral, subcutaneous and/or intramuscular; the substances may be administered at different times before smoke exposure and at different dose levels.
Dose related responses have been determined for reference drugs such as 6β-methyl-prednisolone-21-hemisuccinate sodium salt (6MPHE, by i.m. route, 7 hrs. b.s.l.), sodium dichromoglycate (DSCG, by i.m. route, 2 hrs. b.s.e.) and salbutamol (by i.v. route, 20 minutes before smoke exposure); the results reported in table 4, are expressed as % protection from hyperreactive reaction. […]

cough strokes = experiment: Long lasting persistence of the antitussive action; format: in vivo, guinea pig; settings: 30 mg/Kg os
Text: (§2) Cough strokes are provoked by electrical stimulation of the guinea pig tracheal mucosa. according to Cavanaugh et al., (Arch. Ing. Pharmacodyn., 220, 258, 1976). Cough strokes are stimulated both before (i.e. in the absence of drug treatment) and one hour after the drug administration. […] A group of six animals is used at each dose level; this test is particularly useful for the evaluation of long lasting effects until and after three hours from the administration.
The results showing the long lasting persistance of the antitussive action is reported in Table 3 in comparison with codeine phosphate; all the substances are administered at 30 mg/Kg by oral route.

[3] = test system: cough strokes provoked by electrical stimulation of the guinea pig tracheal mucosa; experiment: Electrically stimulated cough stroke test (Cavanaugh et al.); format: in vivo; settings: for Percent reduction of cough strokes: 15 mg/kg os, one hour after drug
Text: Table 2 refers to results with the compounds of formula (I) in the electrically stimulated cough stroke test, in comparison with codeine phosphate.
as §2

[4] = test system: cytologic pattern of BAL fluids; experiment: Cytology of bronchoalveolar lavage (BAL) fluids after tobacco smoke exposure; format: in vivo, guinea pig (male); settings: smoke-exposed animals; 6 MPHE 50 mg/Kg, DSCG 100 mg/Kg, salbutamol 0.5 mg/Kg
Text: Cytologic studies of the bronochoalveolar lavage (BAL) fluids of the animals, exposed to tobacco smoke and untreated with drugs, show a statistically significant increase of the overall cell counts. Specifically, the number of epithelial cells and of eosinophils is increased, in respect to the cell content of unexposed animals.
At the end of the experiment and/or at a desired time after smoke exposure, the animal is disconnected, and the broncho-alveolar contents are examined by lavages, injecting in the trachea physiological […] solutions (10 ml×3 times). These BAL fluids are combined, centrifuged for 15 minutes at 150 g to give pellets that are suspended in physiological saline (1 ml). The total cell number of BAL fluid is counted in a Burcher camera.
Differential cell counts are made from centrifugated preparations stained with Diff-Quick® counting at least 300 cells for each sample and the % number of epithelial cells, eosinophils, neutrophils, lymphocytes and macrophages are determined.
as §1

[5] = test system: cough strokes, evokated by the two experimental models; experiment: In vivo experiments with naloxone in the two cough models; design: species or system guinea pig

Compound | prevention/inhibition of airway hyperreactivity (words) [2] | Percentage reduction of cough strokes during treatment, 1 h (cough strokes) | Percentage reduction of cough strokes during treatment, 2 h (cough strokes) | Percentage reduction of cough strokes during treatment, 3 h (cough strokes) | Percent reduction of cough strokes [3] | further results
CCN(CC)CCNC(=O)CC(=O)N1CCSC1COc1ccccc1OC (racemic) [Example 14, N-(diethylaminoethyl), N'-[(R,S)-2-(2-methoxy-phenoxymethyl)-1,3-thiazolidine]-malondiamide] | – | – | – | – | – | LD50 at 336 h [1]: 250 mg/kg
COc1ccccc1OCC1SCCN1C(=O)CC(=O)O (racemic) [Compound 10, (R,S)-2-(2-methoxy-phenoxymethyl)-3-carboxyacetyl-1,3-thiazolidine] | effective inhibitors of the hyperreactive reaction | – | – | – | – | –
CNC(=O)CC(=O)N1CCSC1COc1ccccc1OC (racemic) [Compound 11, N-methylamino-N-[(R,S)-2-(2-methoxy-phenoxymethyl)-1,3-thiazolidine]-malondiamide] | – | 24% | 48% | 60% | – | –
(+)-[2-(2-methoxyphenoxymethyl)-3-ethoxycarbonyl]-1,3-thiazolidine [Compound 8] | – | – | – | – | 63% | ED50 ([3]; os, electrical stimulation (Table II)): 12 mg/kg
(R,S)-2-(2-methoxy-phenoxymethyl)-3-(3-oxo-butanoyl)-1,3-thiazolidine [Compound 6] | – | – | – | – | 14% | –
O=C(O)c1cc(=O)c2c(OCC(O)COc3cccc4oc(C(=O)O)cc(=O)c34)cccc2o1 [DSCG] | preventing airway hyperreactivity | – | – | – | – | % protection from hyperreactive reaction ([2]; DSCG 25 mg/kg i.m., 2 hrs before smoke exposure): 27%; % protection from hyperreactive reaction ([2]; DSCG 50 mg/kg i.m., 2 hrs before smoke exposure): 64%; % protection from hyperreactive reaction ([2]; DSCG 100 mg/kg i.m., 2 hrs before smoke exposure): 100%; prevention/inhibition of airway hyperreactivity (words) ([2]; listed as Dichromoglycate (DSCG)): effective; normalization of BAL fluid cytology [4]: able to normalize the cellular pattern in the BAL fluids
C[C@H]1C[C@@H]2[C@H]([C@@H](O)C[C@@]3(C)[C@H]2CC[C@]3(O)C(=O)COC(=O)CCC(=O)O)[C@@]2(C)C=CC(=O)C=C12 [Compound 6MPHE, 6α-methyl-prednisolone-21-hemisuccinatesodium salt] | preventing airway hyperreactivity | – | – | – | – | % protection from hyperreactive reaction ([2]; 6MPHE 10 mg/kg i.m., 7 hrs before smoke exposure): 65%; % protection from hyperreactive reaction ([2]; 6MPHE 25 mg/kg i.m., 7 hrs before smoke exposure): 85%; % protection from hyperreactive reaction ([2]; 6MPHE 50 mg/kg i.m., 7 hrs before smoke exposure): 100%; prevention/inhibition of airway hyperreactivity (words) ([2]; listed as 6α-methyl-prednisolone- 21-hemisuccinatesodium salt (6 MPHE)): effective; normalization of BAL fluid cytology [4]: able to normalize the cellular pattern in the BAL fluids
(R,S)-2-(2-methoxy-phenoxymethyl)-3-ethoxycarbonylacetyl-1,3-thiazolidine [Compound 7] | – | 70% | 60% | 40% | 18% | prevention/inhibition of airway hyperreactivity (words) ([2]; listed as (R,S)-2-(2-methoxyphenoxymethyl)-3-ethoxycarbonylacetyl-1,3-thiazolidine): highly effective; prevention/inhibition of airway hyperreactivity (words) ([2]; listed as (R,S)-2-[2-methoxy-phenoxymethyl)-3-ethoxycarbonylacetyl-1,3-thiazolidine): effective inhibitors of the hyperreactive reaction; protective effect after naloxone pretreatment ([5]; naloxone 5 mg/Kg s.c. pretreatment, substance 30 mg/Kg os): complete protection against cough strokes
COc1ccc2c3c1O[C@H]1[C@@H](O)C=C[C@H]4[C@@H](C2)N(C)CC[C@@]341 [Codeine phosphate, reference compound] | – | 77% | 53% | 46% | 58% | –
CC(C)(C)NCC(O)c1ccc(O)c(CO)c1 (centres unmarked) [Salbutamol] | effective | – | – | – | – | % protection from hyperreactive reaction ([2]; Salbutamol 5 mg/kg i.v., 20 minutes before smoke exposure): 90%; normalization of BAL fluid cytology [4]: fails to modify the smoke induced pathological changes of the BAL fluid cytology
COc1ccccc1OCC1SCCN1C(=O)CC(=O)NCc1cccnc1 (centres unmarked) | – | 80% | 67% | 60% | – | –
C=CCN1CC[C@]23c4c5ccc(O)c4O[C@H]2C(=O)CC[C@@]3(O)[C@H]1C5 [naloxone, reference compound] | – | – | – | – | – | protection against cough strokes by naloxone alone ([5]; 5 mg/kg s.c., both experimental models): unable to protect guinea pig against cough strokes
